According to ChEMBL document CHEMBL2440076, “New triarylpyrazoles as broad-spectrum anticancer agents: design, synthesis, and biological evaluation” (Eur J Med Chem, 2013):

How the values were obtained:
RPMI-8226 = experiment: Growth inhibition of human RPMI8226 cells after 48 hrs by sulforhodamine B assay; type: functional, cell-based; conditions: RPMI-8226, 48 h
SK-MEL-28 = experiment: Growth inhibition of human SK-MEL-28 cells after 48 hrs by sulforhodamine B assay; type: functional; conditions: SK-MEL-28, 48 h
MDA-MB-435 = experiment: Growth inhibition of human MDA-MB-435 cells after 48 hrs by sulforhodamine B assay; type: functional, cell-based; conditions: MDA-MB-435, 48 h
UACC-62 = experiment: Growth inhibition of human UACC62 cells assessed as cell growth at 10 uM after 48 hrs by sulforhodamine B assay; type: functional; conditions: UACC-62, 48 h, read-out: Activity
M14 = experiment: Growth inhibition of human M14 cells assessed as cell growth at 10 uM after 48 hrs by sulforhodamine B assay; type: functional; conditions: M14, 48 h, read-out: Activity
ACHN = experiment: Growth inhibition of human ACHN cells assessed as cell growth at 10 uM after 48 hrs by sulforhodamine B assay; type: functional; conditions: read-out: Activity
COLO 205 [1] = experiment: Growth inhibition of human COLO205 cells assessed as cell growth at 10 uM after 48 hrs by sulforhodamine B assay; type: functional; conditions: COLO 205, 48 h, read-out: Activity
HL-60(TB) = experiment: Growth inhibition of human HL-60(TB) cells after 48 hrs by sulforhodamine B assay; type: functional; conditions: HL-60, 48 h
MCF7 = experiment: Growth inhibition of human MCF7 cells assessed as cell growth at 10 uM after 48 hrs by sulforhodamine B assay; type: functional; conditions: MCF7, 48 h, read-out: Activity
MDA-MB-231 [2] = experiment: Growth inhibition of human MDA-MB-231 cells after 48 hrs by sulforhodamine B assay; type: functional; conditions: MDA-MB-231, 48 h
BT-549 [3] = experiment: Growth inhibition of human BT549 cells after 48 hrs by sulforhodamine B assay; type: functional; conditions: BT-549, 48 h
NCI-H522 [4] = experiment: Growth inhibition of human NCI-H522 cells assessed as cell growth at 10 uM after 48 hrs by sulforhodamine B assay; type: functional; conditions: NCI-H522, 48 h, read-out: Activity
OVCAR-8 [5] = experiment: Growth inhibition of human OVCAR8 cells after 48 hrs by sulforhodamine B assay; type: functional; conditions: OVCAR-8, 48 h
[6] = Growth inhibition of human NCI-ADR-RES cells assessed as cell growth at 10 uM after 48 hrs by sulforhodamine B assay; type: functional; conditions: read-out: Activity
K562 = experiment: Growth inhibition of human K562 cells assessed as cell growth at 10 uM after 48 hrs by sulforhodamine B assay; type: functional; conditions: K562, 48 h, read-out: Activity
NCI-H522 [7] = experiment: Growth inhibition of human NCI-H522 cells after 48 hrs by sulforhodamine B assay; type: functional; conditions: NCI-H522, 48 h
CCRF-CEM = experiment: Growth inhibition of human CCRF-CEM cells after 48 hrs by sulforhodamine B assay; type: functional
HOP-92 = experiment: Growth inhibition of human HOP92 cells assessed as cell growth at 10 uM after 48 hrs by sulforhodamine B assay; type: functional; conditions: HOP-92, 48 h, read-out: Activity
CAKI-1 [8] = experiment: Growth inhibition of human CAKI-1 cells assessed as cell growth at 10 uM after 48 hrs by sulforhodamine B assay; type: functional; conditions: CAKI-1, 48 h, read-out: Activity
SF-268 = experiment: Growth inhibition of human SF268 cells after 48 hrs by sulforhodamine B assay; type: functional; conditions: SF-268, 48 h
SW-620 = experiment: Growth inhibition of human SW620 cells assessed as cell growth at 10 uM after 48 hrs by sulforhodamine B assay; type: functional; conditions: SW-620, 48 h, read-out: Activity
CAKI-1 [9] = experiment: Growth inhibition of human CAKI-1 cells after 48 hrs by sulforhodamine B assay; type: functional; conditions: CAKI-1, 48 h
BT-549 [10] = experiment: Growth inhibition of human BT549 cells assessed as cell growth at 10 uM after 48 hrs by sulforhodamine B assay; type: functional; conditions: BT-549, 48 h, read-out: Activity
UO-31 = experiment: Growth inhibition of human UO31 cells assessed as cell growth at 10 uM after 48 hrs by sulforhodamine B assay; type: functional; conditions: UO-31, 48 h, read-out: Activity
COLO 205 [11] = experiment: Growth inhibition of human COLO205 cells after 48 hrs by sulforhodamine B assay; type: functional; conditions: COLO 205, 48 h
OVCAR-5 = experiment: Growth inhibition of human OVCAR5 cells assessed as cell growth at 10 uM after 48 hrs by sulforhodamine B assay; type: functional; conditions: OVCAR-5, 48 h, read-out: Activity
TK-10 = experiment: Growth inhibition of human TK10 cells after 48 hrs by sulforhodamine B assay; type: functional; conditions: TK-10, 48 h
OVCAR-8 [12] = experiment: Growth inhibition of human OVCAR8 cells assessed as cell growth at 10 uM after 48 hrs by sulforhodamine B assay; type: functional; conditions: OVCAR-8, 48 h, read-out: Activity
786-0 = experiment: Growth inhibition of human 786-0 cells after 48 hrs by sulforhodamine B assay; type: functional; conditions: 786-0, 48 h
NCI-H322M = experiment: Growth inhibition of human NCI-H322M cells after 48 hrs by sulforhodamine B assay; type: functional
Malme-3M = experiment: Growth inhibition of human MALME-3M cells after 48 hrs by sulforhodamine B assay; type: functional
[13] = Growth inhibition of human HCC2998 cells assessed as cell growth at 10 uM after 48 hrs by sulforhodamine B assay; type: functional; conditions: HCC 2998, 48 h, read-out: Activity
MDA-MB-231 [14] = experiment: Growth inhibition of human MDA-MB-231 cells assessed as cell growth at 10 uM after 48 hrs by sulforhodamine B assay; type: functional; conditions: MDA-MB-231, 48 h, read-out: Activity
[15] = Growth inhibition of human Hs 578T cells after 48 hrs by sulforhodamine B assay; type: functional
[16] = read-out: LC50 (the source's name)

COc1cc(-c2nn(-c3cccc(NC(=O)c4ccc(Cl)c(C(F)(F)F)c4)c3)cc2-c2ccncc2)ccc1Cl gave a GI50 (RPMI-8226) of 1.62 µM, an IC50 (RPMI-8226) of 1.62 µM and a TGI (RPMI-8226) greater than 32.5 µM. The CC50 (RPMI-8226; [16]) was greater than 32.5 µM, the GI50 (SK-MEL-28) was 3.08 µM and the LC50 (SK-MEL-28) was greater than 32.5 µM. The TGI (SK-MEL-28) was greater than 32.5 µM, the GI50 (MDA-MB-435) was 0.664 µM and the IC50 (MDA-MB-435) was 0.66 µM. It also gave a TGI (MDA-MB-435) of 1.74 µM, a CC50 (MDA-MB-435; [16]) of 24.7 µM and a growth at 10 µM (UACC-62) of 32.8%. The growth at 10 µM (M14) was 26.2%, the growth at 10 µM (ACHN) was 39.1% and the growth at 10 µM (COLO 205 [1]) was 69.4%. It also gave a GI50 (HL-60(TB)) of 5.48 µM, a TGI (HL-60(TB)) greater than 32.5 µM and a CC50 (HL-60(TB); [16]) greater than 32.5 µM. It also gave a growth at 10 µM (MCF7) of 37.6%, a GI50 (MDA-MB-231 [2]) of 1.2 µM and an LC50 (MDA-MB-231 [2]) greater than 32.5 µM. For the same compound, the TGI (MDA-MB-231 [2]) was greater than 32.5 µM, the GI50 (BT-549 [3]) was 7.54 µM and the LC50 (50% lethal concentration) (BT-549 [3]) was greater than 32.5 µM. The TGI (BT-549 [3]) was greater than 32.5 µM, the growth at 10 µM (NCI-H522 [4]) was 1.5% and the GI50 (OVCAR-8 [5]) was 3.35 µM. For the same compound, the TGI (OVCAR-8 [5]) was greater than 32.5 µM, the CC50 (OVCAR-8 [5]; [16]) was greater than 32.5 µM and the growth at 10 µM [6] was 13.4%. It also gave a growth at 10 µM (K562) of 8.65%, a GI50 (NCI-H522 [7]) of 1.04 µM and an LC50 (concentration killing 50% of cells) (NCI-H522 [7]) greater than 32.5 µM. The TGI (NCI-H522 [7]) was 13.4 µM, the GI50 (CCRF-CEM) was 1.77 µM and the LC50 (CCRF-CEM) was greater than 32.5 µM. It also gave a TGI (CCRF-CEM) greater than 32.5 µM, a growth at 10 µM (HOP-92) of 22.5% and a growth at 10 µM (CAKI-1 [8]) of 61.1%. For the same compound, the GI50 (SF-268) was 4.86 µM, the TGI (SF-268) was greater than 32.5 µM and the CC50 (SF-268; [16]) was greater than 32.5 µM. The growth at 10 µM (SW-620) was 36.1%, the GI50 (CAKI-1 [9]) was 2.3 µM and the TGI (CAKI-1 [9]) was greater than 32.5 µM. It also gave a CC50 (CAKI-1 [9]; [16]) greater than 32.5 µM, a growth at 10 µM (BT-549 [10]) of 49.7% and a growth at 10 µM (UO-31) of 37.1%. The GI50 (COLO 205 [11]) was 6.14 µM, the LC50 (concentration killing 50% of cells) (COLO 205 [11]) was greater than 32.5 µM and the TGI (COLO 205 [11]) was 23.3 µM. The growth at 10 µM (OVCAR-5) was 91.3%, the GI50 (TK-10) was 20.4 µM and the TGI (TK-10) was greater than 32.5 µM. It also gave a CC50 (TK-10; [16]) greater than 32.5 µM, a growth at 10 µM (OVCAR-8 [12]) of 38.9% and a GI50 (786-0) of 11 µM. For the same compound, the TGI (786-0) was greater than 32.5 µM, the CC50 (786-0; [16]) was greater than 32.5 µM and the GI50 (NCI-H322M) was 12.8 µM. For the same compound, the TGI (NCI-H322M) was greater than 32.5 µM, the CC50 (NCI-H322M; [16]) was greater than 32.5 µM and the GI50 (Malme-3M) was 1.18 µM. For the same compound, the LC50 (concentration killing 50% of starting cells) (Malme-3M) was greater than 32.5 µM, the TGI (Malme-3M) was 19.7 µM and the growth at 10 µM [13] was -8.08%. It also gave a growth at 10 µM (MDA-MB-231 [14]) of 25.8%, a GI50 [15] of 2.17 µM and a TGI [15] greater than 32.5 µM. For the same compound, the CC50 [15, 16] was greater than 32.5 µM.
